Measured values: US10301305B2 (priority 2014, dated 2019)
Where a name gives a salt, the structure may show the parent alone.

Tests used:
Assay type in all cases: biochemical
S. aureus DltA = S. aureus DltA (Staphylococcus aureus (strain NCTC 8325 / PS 47), UniProt Q2FZW6); assay: in vitro DltA activity assay (luminescence), S. aureus DltA; conditions: recombinant DltA, 30 min pre-incubation, 0.5 mM D-Alanine, 0.5-5 μM ATP; read-out: S. aureus DltA IC50
Method: (§1) The effect of the compounds of the invention on DltA enzymes has been based on the measure of their inhibition of DltA activity in vitro. To this end, recombinant proteins DltA were expressed and purified after cloning of the genes of S. aureus, E. faecalis, E. faecium and S. agalactiae as described thereafter. The capacity of the compounds of the invention to inhibit DltA enzymatic activity was assessed using the DltA assays as described below:
(§2) The dltA gene was amplified from chromosomal DNA of S. aureus, E. faecalis, E. faecium and S. agalactiae and introduced into E. coli BL21 (Invitrogen, Carlsbad, Calif.) following manufacturer's instruction. Bacteria were grown at 37° C. under aerobic conditions and isopropyl-beta-D-thiogalactopyranoside (IPTG) was added to 0.5-1 mM when OD600 of the bacterial culture had reached 0.5. After a further incubation for 3 hours, cells were harvested by centrifugation. Purification of the recombinant DltA protein was performed by affinity chromatography on nickel-nitrilotriacetic acid (Ni-NTA) column following manufacturer's instructions (Qiagen). Fractions containing recombinant DltA protein were adjusted to 50% glycerol and stored at −20° C. until use.
(§3) The binding potency of the inhibitors against DltA enzyme was assessed by IC50 determination in an in vitro DltA activity assay. The assay buffer “AB” contained 50 mM Hepes pH8.0, 10 mM MgCl2, 50 mM KCl, 0.012% Triton-X100, 10 mM DTT and 100 nM Myelin-basic protein. The following components were added in a white polystyrene Costar plate up to a final volume of 30 μL: 3 μL DMSO, or inhibitor dissolved in DMSO and 27 μL DltA enzyme in AB. After 30 min of pre-incubation at room temperature, 30 μL of Substrates mix in AB were added in each well to a final volume of 60 μL. This reaction mixture was then composed of DltA (produced in house from S. aureus, E. faecalis, E. faecium and S. agalactiae), 0.5 mM D-Alanine (Sigma), 0.5-5 μM ATP (Sigma) and 0.05 u/ml inorganic pyrophosphatase (Sigma) in assay buffer. After typically 1-2 hours of incubation at room temperature (conversion rate around 30%), 30 μL of the revelation mix were added to a final volume of 90 μL, including the following constituents at the respective final concentrations: 10000 u/ml luciferase (Sigma), 30 μM D-luciferin (Sigma), 100 μM N-acetylcysteamine (Aldrich). Luminescence intensity was immediately measured on a Fluostar Optima (BMG) (excitation 360 nm, emission 520 nm) and converted into inhibition percentages. For IC50 determinations (Inhibitory Concentration 50%) the inhibitor was added at 6 to 10 different concentrations and the related inhibitions were fitted to a classical Langmuir equilibrium model using XLFIT (IDBS).
(§4) For compounds interfering with the luminescent signal (quenching), the same experiment without DltA enzyme was performed to allow quenching determination and correction.

E. feacalis DltA = E. feacalis DltA (Enterococcus faecalis, UniProt Q830N0); assay: in vitro DltA activity assay (luminescence), E. faecalis DltA; conditions: recombinant DltA, 30 min pre-incubation, 0.5 mM D-Alanine, 0.5-5 μM ATP; read-out: E. feacalis DltA IC50
Method: as §1, §2, §3, §4

E. feacium DltA = E. feacium DltA (Enterococcus faecium, UniProt Q3XZT7); assay: in vitro DltA activity assay (luminescence), E. faecium DltA; conditions: recombinant DltA, 30 min pre-incubation, 0.5 mM D-Alanine, 0.5-5 μM ATP; read-out: E. feacium DltA IC50
Method: as §1, §2, §3, §4

S. Agalactiae DltA = S. Agalactiae DltA (Streptococcus agalactiae serotype III (strain NEM316), UniProt Q8VM67); assay: in vitro DltA activity assay (luminescence), S. agalactiae DltA; conditions: recombinant DltA, 30 min pre-incubation, 0.5 mM D-Alanine, 0.5-5 μM ATP; read-out: S. Agalactiae DltA IC50
Method: as §1, §2, §3, §4

E. feacium DltA, sequence (Q3XZT7 1-504): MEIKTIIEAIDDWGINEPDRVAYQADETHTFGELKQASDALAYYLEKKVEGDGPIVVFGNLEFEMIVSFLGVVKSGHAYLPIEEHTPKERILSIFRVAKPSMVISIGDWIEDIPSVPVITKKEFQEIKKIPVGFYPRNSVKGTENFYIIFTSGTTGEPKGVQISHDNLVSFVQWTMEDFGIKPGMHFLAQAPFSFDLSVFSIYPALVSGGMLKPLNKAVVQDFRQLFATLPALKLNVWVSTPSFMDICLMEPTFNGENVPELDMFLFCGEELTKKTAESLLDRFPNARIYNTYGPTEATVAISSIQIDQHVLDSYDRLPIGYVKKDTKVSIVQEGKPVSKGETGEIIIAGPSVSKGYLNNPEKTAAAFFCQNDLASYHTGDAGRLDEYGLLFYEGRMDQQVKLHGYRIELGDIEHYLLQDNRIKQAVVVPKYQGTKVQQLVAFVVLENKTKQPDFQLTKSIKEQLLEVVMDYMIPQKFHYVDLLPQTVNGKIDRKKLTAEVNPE
E. feacalis DltA, sequence (Q830N0 1-506): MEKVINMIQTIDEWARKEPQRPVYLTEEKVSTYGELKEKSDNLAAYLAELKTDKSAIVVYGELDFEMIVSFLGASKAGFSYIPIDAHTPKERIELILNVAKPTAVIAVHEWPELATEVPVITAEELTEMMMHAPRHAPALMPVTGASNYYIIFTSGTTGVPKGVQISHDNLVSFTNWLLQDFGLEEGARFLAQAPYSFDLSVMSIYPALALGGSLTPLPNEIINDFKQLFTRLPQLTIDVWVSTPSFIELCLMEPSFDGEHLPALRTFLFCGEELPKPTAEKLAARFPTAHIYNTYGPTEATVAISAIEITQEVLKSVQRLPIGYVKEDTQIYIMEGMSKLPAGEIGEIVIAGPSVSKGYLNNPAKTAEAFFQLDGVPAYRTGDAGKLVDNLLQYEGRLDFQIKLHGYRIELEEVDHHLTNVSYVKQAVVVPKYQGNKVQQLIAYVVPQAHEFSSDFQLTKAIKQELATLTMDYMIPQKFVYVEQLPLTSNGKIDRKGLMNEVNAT

| SMILES | IC50 (S. aureus DltA) | IC50 (E. feacalis DltA) | IC50 (E. feacium DltA) | IC50 (S. Agalactiae DltA) |
| --- | --- | --- | --- | --- |
| c1nc2c(-c3ccc4c(c3)ncn4C3CCCCC3)cc(N3CC4CNCC4C3)cc2[nH]1 (stereo not shown) [Example 36, 1′-Cyclohexyl-6-(hexahydro-pyrrolo[3,4-c]pyrrol-2-yl)-1H,1′H-[4,5′]bibenzimidazolyl] | 80 nM | 170 nM | 1100 nM | 3800 nM |
| O=[N+]([O-])c1c(N2CC[C@H](CO)C2)cc(-c2ccc3c(c2)ncn3C2CCCCC2)c2nc[nH]c12 [Example 43, [(S)-1-(1′-Cyclohexyl-7-nitro-1H,1′H-[4,5′]bibenzimidazolyl-6-yl)-pyrrolidin-3-yl]-methanol] | 85 nM | 30 nM | 170 nM | 6300 nM |
| O=[N+]([O-])c1c(N2CC[C@H](CO)[C@@H](O)C2)cc(-c2ccc3c(c2)ncn3C2CCCCC2)c2nc[nH]c12 [Example 44, (3R,4R)-1-(1′-Cyclohexyl-7-nitro-1H,1′H-[4,5′]bibenzimidazolyl-6-yl)-4-hydroxymethyl-piperidin-3-ol] | 49 nM | 71 nM | 96 nM | 1500 nM |
| O=C(O)c1c(N2CC[C@H](CO)C2)cc(-c2ccc3c(c2)ncn3C2CCCCC2)c2nc[nH]c12 [Example 55, 1′-Cyclohexyl-6-((S)-3-hydroxymethyl-pyrrolidin-1-yl)-1H,1′H-[4,5′]bibenzimidazolyl-7-carboxylic acid] | 250 nM | 150 nM | 360 nM | 760 nM |
| N#Cc1c(N2CC[C@H](CO)C2)cc(-c2ccc3c(c2)ncn3C2CCCCC2)c2nc[nH]c12 [Example 58, 1′-Cyclohexyl-6-((S)-3-hydroxymethyl-pyrrolidin-1-yl)-1H,1′H-[4,5′]bibenzimidazolyl-7-carbonitrile] | 180 nM | 120 nM | 230 nM | 8600 nM |
| N#Cc1c(N2CCC(CO)(CO)CC2)cc(-c2ccc3c(c2)ncn3C2CCCCC2)c2nc[nH]c12 [Example 61, 6-(4,4-Bis-hydroxymethyl-piperidin-1-yl)-1′-cyclohexyl-1H,1′H-[4,5′]bibenzimidazolyl-7-carbonitrile] | 240 nM | 110 nM | 230 nM | 4700 nM |
| NC(=O)c1c(F)cc(-c2ccc3c(c2)ncn3C2CCCCC2)c2nc[nH]c12 [Example 63, 1′-Cyclohexyl-6-fluoro-1H,1′H-[4,5′]bibenzimidazolyl-7-carboxamide] | 49 nM | 43 nM | 83 nM | 2000 nM |
| NC(=O)c1c(N2CC[C@H](CO)C2)cc(-c2ccc3c(c2)ncn3C2CCCCC2)c2nc[nH]c12 [Example 64, 1′-Cyclohexyl-6-((S)-3-hydroxymethyl-pyrrolidin-1-yl)-1H,1′H-[4,5′]bibenzimidazolyl-7-carboxamide] | 65 nM | 27 nM | 68 nM | 710 nM |
| NC(=O)c1c(N2CC3CNCC3C2)cc(-c2ccc3c(c2)ncn3C2CCCCC2)c2nc[nH]c12 (stereo not shown) [Example 65, 1′-Cyclohexyl-6-(hexahydro-pyrrolo[3,4-c]pyrrol-2-yl)-1H,1′H-[4,5′]bibenzimidazolyl-7-carboxylic acid amide hydrochloride] | 66 nM | 36 nM | 140 nM | 1800 nM |
| NC(=O)c1c(N2CCC(CCO)C2)cc(-c2ccc3c(c2)ncn3C2CCCCC2)c2nc[nH]c12 (stereo not shown) [Example 77, 1′-Cyclohexyl-6-[3-(2-hydroxy-ethyl)-pyrrolidin-1-yl]-1H,1′H-[4,5′]bibenzimidazolyl-7-carboxamide] | 77 nM | 41 nM | 110 nM | 1300 nM |
| N#Cc1c(NCCO)cc(-c2ccc3c(c2)ncn3C2CCCCC2)c2nc[nH]c12 [Example 78] | 210 nM | 170 nM | 590 nM | 5400 nM |
| CN(CCO)c1cc(-c2ccc3c(c2)ncn3C2CCCCC2)c2nc[nH]c2c1C#N [Example 92] | 190 nM | 240 nM | 600 nM | 8200 nM |
| CN(C)CCOc1cc(-c2ccc3c(c2)ncn3C2CCCCC2)c2nc[nH]c2c1C#N [Example 104] | 53 nM | 84 nM | 390 nM | 2400 nM |
| CN1CCN(c2cc(-c3ccc4c(c3)ncn4C3CCCCC3)c3nc[nH]c3c2C(N)=O)CC1 [Example 106, 1′-Cyclohexyl-6-(4-methyl-piperazin-1-yl)-1H,1′H-[4,5′]bibenzimidazolyl-7-carboxamide] | 34 nM | 18 nM | 76 nM | 500 nM |
| O=C(NO)c1c(F)cc(-c2ccc3c(c2)ncn3C2CCCCC2)c2nc[nH]c12 [Example 111, 1′-Cyclohexyl-6-fluoro-1H,1′H-[4,5′]bibenzimidazolyl-N-hydroxy-7-carboxamide] | 280 nM | 610 nM | 1100 nM | 11000 nM |
| CN(CCO)c1cc(-c2ccc3c(c2)ncn3C2CCCCC2)c2nc[nH]c2c1C(N)=O [Example 117, 1′-Cyclohexyl-6-[(2-hydroxy-ethyl)-methyl-amino]-1H,1′H-[4,5′]bibenzimidazolyl-7-carboxamide] | 23 nM | 16 nM | 27 nM | 560 nM |
| CN(C)CCCN(C)c1cc(-c2ccc3c(c2)ncn3C2CCCCC2)c2nc[nH]c2c1C(N)=O [Example 122, 1′-Cyclohexyl-6-[(3-dimethylamino-propyl)-methyl-amino]-1H,1′H-[4,5′]bibenzimidazolyl-7-carboxamide] | 59 nM | 31 nM | 82 nM | 1800 nM |
| CN(C)CCN(C)c1cc(-c2ccc3c(c2)ncn3C2CCCOC2)c2nc[nH]c2c1C(N)=O (stereo not shown) [Example 123, 6-[(2-dimethylamino-ethyl)-methyl-amino]-1′-(tetrahydro-pyran-3-yl)-1H,1′H-[4,5′]bibenzimidazolyl-7-carboxamide] | 6.9 nM | 8.2 nM | 41 nM | 970 nM |
| CN(C)CC1CCCN1c1cc(-c2ccc3c(c2)ncn3C2CCCCC2)c2nc[nH]c2c1C(N)=O (stereo not shown) [Example 126, 1′-Cyclohexyl-6-(2-dimethylaminomethyl-pyrrolidin-1-yl)-1H,1′H-[4,5′]bibenzimidazolyl-7-carboxamide] | 57 nM | 56 nM | 240 nM | 1800 nM |
| CN(CCN1CCCC1)c1cc(-c2ccc3c(c2)ncn3C2CCCCC2)c2nc[nH]c2c1C(N)=O [Example 127, 1′-Cyclohexyl-6-[methyl-(2-pyrrolidin-1-yl-ethyl)-amino]-1H,1′H-[4,5′]bibenzimidazolyl-7-carboxamide] | 25 nM | 2.9 nM | 18 nM | 140 nM |
| CCN(CC)CCN(C)c1cc(-c2ccc3c(c2)ncn3C2CCCCC2)c2nc[nH]c2c1C(N)=O [Example 130, 1′-Cyclohexyl-6-[(2-diethylamino-ethyl)-methyl-amino]-1H,1′H-[4,5′]bibenzimidazolyl-7-carboxamide] | 73 nM | 36 nM | 170 nM | 790 nM |
| CN(C)CCN(CCO)c1cc(-c2ccc3c(c2)ncn3C2CCCCC2)c2nc[nH]c2c1C(N)=O [Example 131, 1′-Cyclohexyl-6-[(2-dimethylamino-ethyl)-(2-hydroxy-ethyl)-amino]-1H,1′H-[4,5′]bibenzimidazolyl-7-carboxamide] | 75 nM | 40 nM | 230 nM | 1900 nM |
